Measured values from US9474759B2 (priority 2011, dated 2016).

Assays:
HAV [1] = assay: Cell-based screening, HAV (Example 2); set-up: species or system hepatitis A virus; conditions: Picornaviridae, read-out: Inhibition [ED50 (μM)] against various viruses: Picornavirus, HAV
Procedure: (§1) 3. Cell-based screening of inhibitor. The effects of each inhibitor on the viral replication were examined. The list of viruses and corresponding cell lines are listed above in Table 2. Briefly, confluent cells were inoculated with virus at a MOI of 5 or 0.05 for 1 hr, and medium was replaced with medium containing mock-medium or each compound (up to 100 μM). The virus infected cells were further incubated for up to 96 hrs, and the replication of virus was measured by TCID50 assay with the 10-fold dilution of each sample used for virus titration (Reed and Muench, 1938). In some viruses, the virus protein and genome expression levels were detected by Western blot analysis and real-time qRT-PCR, respectively, as described below. The IC50s of the compounds were calculated.

[2] = target: recombinant 3C or 3CL of MD145 (Norovirus Hu/GII.4/MD145-12/1987/US (Maryland virus), UniProt Q8V0P3); assay: FRET protease assay, MD145 3CL (Example 2); assay type: biochemical, norovirus strain MD145
MHV = assay: Cell-based screening, MHV in CCL-9.1 cells (Example 2); set-up: species or system mouse hepatitis virus; conditions: Murine coronavirus, read-out: Inhibition [ED50 (μM)] against various viruses: Coronavirus, MHV
TGEV = assay: Cell-based screening, TGEV in ST cells (Example 2); set-up: species or system transmissible gastroenteritis virus; conditions: Alphacoronavirus 1, read-out: Inhibition [ED50 (μM)] against various viruses: Coronavirus, TGEV
Procedure: as §1

FIPV = assay: Cell-based screening, FIPV in CRFK cells (Example 2); set-up: species or system feline infectious peritonitis virus; conditions: Alphacoronavirus 1, CRFK, read-out: Inhibition [ED50 (μM)] against various viruses: Coronavirus, FIPV
Procedure: as §1

HAV 3Cpro = HAV 3Cpro (Human hepatitis A virus genotype IB, UniProt P08617); assay: Optimized FRET protease assay, HAV 3Cpro (Example 3); assay type: biochemical
Procedure: Fluorogenic substrates with Edans and Dabcyl as a donor and quencher pair were purchased from Bachem (coronavirus substrate) or synthesized by GenScript. The viral proteases and the corresponding fluorogenic substrates are listed in Table 5, along with their sources.
Stock solutions (10 mM) of the substrates and the compounds were prepared in dimethyl sulfoxide (DMSO) and diluted in assay buffer. The assay buffer comprised 20 mM HEPES buffer containing NaCl (0 mM for HAV 3Cpro and 200 mM for all other proteases), 0.4 mM EDTA, Glycerol (60% for NV and MD145 3CLpro and 30% for TGEV and 229E 3CLpro), and 6 mM (NV and MD145 3CLpro and HAV 3Cpro)_or 4 mM (all other proteases) dithiothreitol (DTT) at pH 6 (coronavirus 3CLpro) or 8 (all other proteases). Each protease was mixed with serial dilutions of each compound or with DMSO in 25 μl of assay buffer and incubated at 37° C. for 30 min, followed by the addition of 25 μl of assay buffer containing substrate. Fluorescence readings were obtained using an excitation wavelength of 360 nm and an emission wavelength of 460 nm on a fluorescence microplate reader (FLx800; Biotek, Winooski, Vt.) at 1 h following the addition of substrate. The relative fluorescence units (RFU) were determined by subtracting background values (substrate-containing well without protease) from the raw fluorescence values. […]

FCV [3] = assay: Cell culture system, FCV replication in CRFK cells (Example 3); assay type: cell-based, feline calicivirus; conditions: CRFK cells
MNV-1 [4] = assay: Cell-based screening, MNV-1 in RAW267.4 cells (Example 2); set-up: species or system murine norovirus; conditions: Norwalk virus, RAW267.4, read-out: Inhibition [ED50 (μM)] against various viruses: Calicivirus, MNV-1
Procedure: as §1

[5] = target: SARS-CoV 3CLpro (codon-optimized, N-terminal 6 His, recombinant) (Severe acute respiratory syndrome coronavirus, UniProt P0C6X7); assay: biochemical
[6] = target: MD145 3CLpro (codon-optimized, full-length, N-terminal 6 His, recombinant) (Lordsdale virus, UniProt P54634); assay: biochemical; set-up: species or system norovirus strain MD145 (human norovirus GII)
229E = assay: Cell-based screening, 229E in MRC-5 cells (Example 2); conditions: Human coronavirus 229E, MRC5, read-out: Inhibition [ED50 (μM)] against various viruses: Coronavirus, 229E
Procedure: as §1

MNV-1 [7] = assay: Cell culture system, MNV-1 replication in RAW267.4 cells (Example 3); assay type: cell-based, murine norovirus; conditions: RAW267.4 cells
[8] = tested on: Norwalk virus (HG23 cells); assay: microbe, parasite or virus in culture; assay type: cell-based; conditions: HG23, read-out: Inhibition [ED50 (μM)] against various viruses: Calicivirus, HG23 cells
[9] = PK and oral bioavailability studies in rats; conditions: 20 mg/Kg (body weight), IV or PO
[10] = target: HAV 3Cpro (full-length, 6 His, recombinant) (Human hepatitis A virus genotype IB, UniProt P08617); assay: biochemical; set-up: species or system human hepatitis A virus (strain HM175)
FCV [11] = assay: Cell-based screening, FCV in CRFK cells (Example 2); conditions: Feline calicivirus, CRFK, read-out: Inhibition [ED50 (μM)] against various viruses: Calicivirus, FCV
Procedure: as §1

Teschovirus = assay: organism not typed; assay type: cell-based, porcine teschovirus; conditions: read-out: Inhibition [ED50 (μM)] against various viruses: Picornavirus, Teschovirus
EV71 = assay: Cell-based screening, EV71 in Vero cells (Example 2); set-up: species or system enterovirus 71; conditions: Enterovirus A, EV71, Vero, read-out: Inhibition [ED50 (μM)] against various viruses: Picornavirus, EV71
Procedure: as §1

[12] = target: Norwalk virus 3CL protease (Norovirus, UniProt Q83883); assay: Recombinant NV protease fluorogenic substrate inhibition assay (Example 1); assay type: biochemical; conditions: 30 min pre-incubation, 30° C., pH 8.0
Procedure: After a 30 minute incubation period, 5 μL of 12 μM Edans-[…]-Dabcyl (SEQ ID NO:1) substrate in DMSO was then added and the increase in fluorescence was monitored for 30 minutes at an excitation and emission wavelength of 360 and 460 nm, respectively. Using a HORIBA FluoroMax 4 spectrofluorometer. Hydrolysis curves were linear. The final enzyme and substrate concentrations were 2.5 μM and 300 nM, respectively. […] Furthermore, the nature of the cap was also important (compare, for example, inhibitors A and D).

[13] = tested on: 3CLpro of NV, MD145, MNV-1; assay type: biochemical, norovirus; conditions: optimized FRET-based protease assay
[14] = tested on: human norovirus (GII.12 HS206); assay: Gnotobiotic pig model of human norovirus infection, repeat at 100 mg/kg/day; assay type: in vivo; conditions: Gn pigs
Excerpt: After antiviral treatment or HuNoV inoculation, clinical signs and fecal virus shedding were monitored daily through day 14.

HAV [15] = assay: Cell culture system, HAV replication in FRhK-4 cells (Example 3); assay type: cell-based, hepatitis A virus
TGEV 3CL protease = TGEV 3CL protease (Porcine transmissible gastroenteritis coronavirus, UniProt P0C6Y5); assay: FRET-based protease assay, TGEV 3CL protease (Example 5); assay type: biochemical, TGEV Miller strain; conditions: compound at 50 μM final concentration
Excerpt: The 3CL proteases are highly conserved among all coronaviruses, and feline coronavirus 3CL protease is closely related TGEV 3CL protease. Therefore we cloned and expressed the TGEV 3CL protease for the FRET assay. The cDNA encoding the full length of 3CL protease of TGEV Miller strain was amplified with RT-PCR as previously described. The primers contained the nucleotide sequence of the 3CL protease for cloning as well as the nucleotides for 6 Histidine in the forward primer. The amplified product was subcloned to pET-28a(+) vector (GenScript, Piscataway, N.J.). The expression and purification of the 3CL protease was performed with a standard method described previously by our lab (Chang et al., 2012b; Takahashi et al., 2012; Tiew et al., 2011).
Our protease inhibitor compounds and commercial cathepsin inhibitors CA074-Me and E64d were prepared in DMSO as stock solutions (10 mM), and further diluted in assay buffer consisting of 20 mM HEPES, 0.4 mM EDTA, 30% glycerol, 120 mM NaCl, and 4 mM DTT at pH 6. […] TGEV 3CL protease at a final concentration of 0.1˜0.2 μM and the substrate (Dabcyl-[…]-Edans; SEQ ID NO:2) at 10 μM were used for the studies. The substrate was purchased from Bachem Americas, Inc (Torrance, Calif.). Compounds at various concentrations (0˜50 μM) were pre-incubated with TGEV 3CL protease in 25 μl for 30 min at 37° C., and the same volume of substrate was added to a 96-well black plate. The mixtures were then incubated at 37° C. for 60 min, and fluorescence readings were obtained on a microplate reader at 360 nm excitation and 480 nm emission wavelengths. The relative fluorescence units (RFU) were calculated by subtracting background (substrate control well without protease) from the fluorescence readings. The dose-dependent FRET inhibition curves were fitted with variable slope (four parameters) using GraphPad Prism software (La Jolla, Calif.) in order to determine the compound concentration that gives a half-maximum response (IC50).

MNV-1 [16] = conditions: MNV-1 passaged in the presence of the drug
human norovirus (HuNoV) = assay: Gnotobiotic pig model of human norovirus infection, first trial; assay type: in vivo, gnotobiotic (Gn) pigs
Excerpt: We investigated if fecal norovirus shedding in human norovirus-inoculated gnotobiotic (Gn) pigs is altered the by treatment with GC376. […] On day 2 after antiviral treatment, they were inoculated orally with 1.0×10^10 genome equivalent (GE) of Human norovirus (GII.12 HS206). Rectal swabs were collected daily from each animal throughout the experiment, and fecal virus shedding and clinical signs were monitored daily until virus was not detectable by real-time qRT-PCR. The Table below summarizes the results.

[17] = oral 100 mg/kg once a day for 5 days
[18] = Gn pigs, oral 25 mg/kg twice a day 10 days then approx. 12.5 mg/kg twice a day 5 days
[19] = same regimen, detection limit 4.7 log10 GE/ml

Norwalk virus 3CL protease, sequence (Q83883 1101-1281): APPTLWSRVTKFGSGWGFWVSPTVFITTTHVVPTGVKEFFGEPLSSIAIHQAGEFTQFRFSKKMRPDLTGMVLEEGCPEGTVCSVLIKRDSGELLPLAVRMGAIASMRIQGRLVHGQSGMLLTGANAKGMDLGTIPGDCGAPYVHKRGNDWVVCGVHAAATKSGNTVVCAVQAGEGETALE
HAV 3Cpro, sequence (P08617 1520-1738): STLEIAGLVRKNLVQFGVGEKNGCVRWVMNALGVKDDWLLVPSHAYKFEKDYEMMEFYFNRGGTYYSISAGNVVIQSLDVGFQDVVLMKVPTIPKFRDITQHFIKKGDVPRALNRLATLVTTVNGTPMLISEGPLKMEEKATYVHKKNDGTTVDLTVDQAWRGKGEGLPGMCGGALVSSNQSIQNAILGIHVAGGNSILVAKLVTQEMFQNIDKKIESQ
HAV 3Cpro (full-length, 6 His, recombinant), sequence (P08617 1520-1738): as above
TGEV 3CL protease, sequence (P0C6Y5 2879-3180): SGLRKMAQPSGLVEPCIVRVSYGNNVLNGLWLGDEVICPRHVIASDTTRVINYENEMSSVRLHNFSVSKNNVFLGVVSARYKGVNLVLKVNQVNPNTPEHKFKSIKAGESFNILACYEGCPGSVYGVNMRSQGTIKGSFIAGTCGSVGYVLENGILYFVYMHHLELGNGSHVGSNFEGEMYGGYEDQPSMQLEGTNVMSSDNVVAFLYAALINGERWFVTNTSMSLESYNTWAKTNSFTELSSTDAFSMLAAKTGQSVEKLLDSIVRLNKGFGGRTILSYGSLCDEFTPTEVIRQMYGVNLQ
recombinant 3C or 3CL of MD145, sequence (Q8V0P3 entry or part of it): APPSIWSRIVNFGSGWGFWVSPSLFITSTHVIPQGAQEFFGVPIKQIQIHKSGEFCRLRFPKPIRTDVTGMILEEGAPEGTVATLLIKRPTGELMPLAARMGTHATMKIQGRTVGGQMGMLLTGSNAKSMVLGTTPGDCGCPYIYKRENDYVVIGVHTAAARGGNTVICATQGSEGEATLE
MD145 3CLpro (codon-optimized, full-length, N-terminal 6 His, recombinant), sequence (P54634 1009-1189): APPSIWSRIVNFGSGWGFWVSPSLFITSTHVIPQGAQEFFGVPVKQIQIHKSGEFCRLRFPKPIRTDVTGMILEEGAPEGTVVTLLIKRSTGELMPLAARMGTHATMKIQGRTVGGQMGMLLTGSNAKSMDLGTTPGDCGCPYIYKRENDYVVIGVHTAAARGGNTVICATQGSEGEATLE

For `CC(C)C[C@H](NC(=O)OCc1ccccc1)C(=O)N[C@@H](CC1CCNC1=O)C(=O)C(=O)NC(C)C` (stereo partly shown) [GC375], the EC50 (HAV [1]) was 20 µM, the IC50 [2] was 6.4 µM and the EC50 (MHV) was 4.5 µM. For the same compound, the EC50 (TGEV) was 0.2 µM, the EC50 (FIPV) was 1.5 µM and the “inhibitory effect on HAV 3Cpro (in words)” value (HAV 3Cpro) was “weak but appreciable inhibitory effects”. The “antiviral effects against FCV: no effects at concentrations up to” value (FCV [3]) was over 50 µM, the EC50 (MNV-1 [4]) was 85 µM and the IC50 [5] was 4.66 ± 0.19 µM. The IC50 [6] was 4.03 µM, the EC50 (229E) was 0.15 µM and the “antiviral effects against MNV-1: no effects at concentrations up to” value (MNV-1 [7]) was over 50 µM. The EC50 [8] was 3.2 µM, the “oral bioavailability, % F” value [9] was 16 % F and the IC50 [10] was 42.6 ± 2.61 µM. The EC50 (FCV [11]) was 4.5 µM, the EC50 (Teschovirus) was 0.2 µM and the EC50 (EV71) was 15 µM. For the same compound, the “inhibitory activity against Norwalk virus 3CL protease (in words)” value [12] was “devoid of inhibitory activity” and the “effect on the activity of 3CLpro of NV, MD145, MNV-1 (in words)” value [13] was “lower than those of GC373 and GC376”.

For `CC(C)C[C@H](NC(=O)OCc1ccccc1)C(=O)N[C@@H](C[C@@H]1CCNC1=O)C(O)S(=O)(=O)[O-].[Na+]` (stereo partly shown) [GC376], the “Mean duration of virus shedding (SEM), Tx (+) at PIDs 1-5” value [14, 17] was 3.3 (0.3), the “Mean duration of virus shedding (SEM), Tx (−) at PIDs 6-14” value [14, 17] was 4.0 (2.0) and the “Mean log10 viral titer/rectal swab (GE/ml) (SEM), Overall viral titer shed at PIDs 1-14” value [14, 17] was 5.17 (0.08)^B log10 GE/ml. The “Mean log10 viral titer/rectal swab (GE/ml) (SEM), Tx (+) at PIDs 1-5” value [14, 17] was 5.28 (0.13)^b,A log10 GE/ml, the “Mean log10 viral titer/rectal swab (GE/ml) (SEM), Tx (−) at PIDs 6-14” value [14, 17] was 5.11 (0.10)^B log10 GE/ml and the “fecal viral RNA titers after treatment was discontinued vs 30% DMSO vehicle pigs (in words)” value [14, 17] was “significantly lower fecal viral RNA titers”. For the same compound, the “Mean onset of virus shedding (PID) (SEM)” value ([14]; oral 100 mg/kg once a day for 5 days from day 1 after inoculation) was 2.7 (0.3) PID, the “oral bioavailability, % F” value [9] was 4 % F and the “effectiveness against the replication of HAV in cells (in words)” value (HAV [15]) was “no or weak effectiveness”. For the same compound, the “inhibition of the activity of TGEV 3CL protease (in words)” value (TGEV 3CL protease) was “remarkably inhibited”, the “increase of IC50 at passage number 15” value (MNV-1 [16]) was “up to 10 fold” and the “Mean duration of virus shedding, Tx (+) at PIDs 1-13” value (human norovirus (HuNoV); [18]) was 7.5. The “Mean onset of virus shedding (PID)” value (human norovirus (HuNoV); [18]) was 2.3 PID, the “effect of oral treatment on virus shedding compared to untreated animals (in words)” value (human norovirus (HuNoV); HuNoV-inoculated Gn pigs) was “significantly reduced the duration of virus shedding” and the “Overall duration of virus shedding at PID1-27” value (human norovirus (HuNoV); same regimen) was 7.5. For the same compound, the “Mean duration of virus shedding, Tx (−) at PIDs 14-27” value (human norovirus (HuNoV); same regimen, after treatment discontinued) was 0, the “Mean log10 viral titer/rectal swab (GE/ml), Overall viral titer shed at PIDs 1-27” value (human norovirus (HuNoV); [19]) was 4.86 log10 GE/ml and the “Mean log10 viral titer/rectal swab (GE/ml), Tx (+) at PIDs 1-13” value (human norovirus (HuNoV); [19]) was 4.98 log10 GE/ml. For the same compound, the “Mean log10 viral titer/rectal swab (GE/ml), Tx (−) at PIDs 14-27” value (human norovirus (HuNoV); [19]) was under 4.70 log10 GE/ml and the “effect on the activity of 3CLpro of NV, MD145, MNV-1 (in words)” value [13] was “highly effective”.
